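These data come from cells grown in 96-well plates and exposed to compound for 48 hours at five concentrations. The concentration for 50% growth inhibition is given as GI50. TGI is the concentration that stops growth completely.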
Experiments:
Assay in all cases: NCI-60 cell line screen, 48 h
[1] = test system: RPMI-8226 leukemia
[2] = test system: SK-MEL-5 melanoma
[3] = test system: SK-OV-3 ovarian
[4] = test system: SNB-75 CNS
[5] = test system: OVCAR-4 ovarian
[6] = test system: EKVX NSCLC
[7] = test system: 786-0 renal
[8] = test system: SN12C renal
[9] = test system: OVCAR-5 ovarian
[10] = test system: HOP-62 NSCLC

For `CC(=O)[CH-]C(=O)c1ccccc1.CC(=O)[CH-]C(=O)c1ccccc1.CC[C@H](CCC(C)[C@H]1CCC2[C@@H]3CC=C4C[C@@H]([O-])CC[C@]4(C)C3CC[C@@]21C)C(C)C.CC[C@H](CCC(C)[C@H]1CCC2[C@@H]3CC=C4C[C@@H]([O-])CC[C@]4(C)C3CC[C@@]21C)C(C)C.Cl.[Ti+4]` (stereo partly specified), the TGI [1] was > 25 µM, the TGI [2] was > 25 µM and the GI50 [3] was > 25 µM. The TGI [3] was > 25 µM, the TGI [4] was > 25 µM and the TGI [5] was > 25 µM. The TGI [6] was > 25 µM, the TGI [7] was > 25 µM and the TGI [8] was > 25 µM. The TGI [9] was > 25 µM and the TGI [10] was > 25 µM.
`c1ccc(-c2sc(-c3ccccc3)c3c2C(c2ccccc2)c2c(-c4ccccc4)sc(-c4ccccc4)c2C3c2ccccc2)cc1` (stereo unspecified) was tested, and the TGI [1] was > 100 µM, the TGI [2] was > 100 µM and the TGI [3] was > 100 µM. The TGI [4] was > 100 µM, the TGI [5] was > 100 µM and the TGI [6] was > 100 µM. For the same compound, the TGI [7] was > 100 µM, the TGI [8] was > 100 µM and the TGI [9] was > 100 µM. The TGI [10] was > 100 µM.
With `CCc1nc(N)nc(N)c1-c1ccc(N2CCNCC2)c([N+](=O)[O-])c1` the TGI [1] was > 100 µM, the TGI [2] was 28.3 µM and the TGI [3] was > 100 µM. For the same compound, the TGI [4] was > 95.8 µM, the TGI [5] was > 100 µM and the TGI [6] was > 100 µM. The TGI [7] was > 74.3 µM, the TGI [8] was > 100 µM and the TGI [9] was > 100 µM. For the same compound, the TGI [10] was > 91.8 µM.
Compound `O=C(Nc1nc2ccc(OC(F)(F)F)cc2s1)c1ccc(F)cc1` has a GI50 [1] of 2520 nM, a TGI [1] of 8.08 µM and a GI50 [2] of 2450 nM. The TGI [2] was 6.6 µM, the GI50 [3] was 2.6 µM and the TGI [3] was 8.44 µM. The GI50 [4] was 3450 nM, the TGI [4] was 53.9 µM and the GI50 [5] was 2.95 µM. The TGI [5] was > 100 µM, the GI50 [6] was 2.65 µM and the TGI [6] was 10.6 µM. The GI50 [7] was 3470 nM, the TGI [7] was > 100 µM and the GI50 [8] was 2580 nM. It also gave a TGI [8] of 8.21 µM, a GI50 [9] of 3.62 µM and a TGI [9] of 27.6 µM. The GI50 [10] was 3.81 µM and the TGI [10] was 26.9 µM.
In the case of `COc1ccc(/C=C/C(=O)C(=O)/C=C/c2ccc(OC)c(OC)c2)cc1OC`, the GI50 [1] is reported as 389 nM, the TGI [1] is reported as 2.33 µM and the GI50 [2] is reported as 2140 nM. The TGI [2] was 6.15 µM, the GI50 [3] was 36.4 µM and the TGI [3] was > 100 µM. The GI50 [4] was 2490 nM, the TGI [4] was 33.9 µM and the GI50 [5] was 4.07 µM. For the same compound, the TGI [5] was > 100 µM, the GI50 [6] was 5 µM and the TGI [6] was > 100 µM. The GI50 [7] was 2280 nM, the TGI [7] was 7.88 µM and the GI50 [8] was 3060 nM. The TGI [8] was 17.7 µM, the GI50 [9] was 2.5 µM and the TGI [9] was 8.08 µM. The GI50 [10] was 6.8 µM and the TGI [10] was > 100 µM.
For `C=C(CC)C(=O)c1ccc(OCC(=O)O)c(Cl)c1Cl`, the TGI [1] was > 100 µM, the TGI [2] was > 55.7 µM and the TGI [3] was > 100 µM. For the same compound, the TGI [4] was 50 µM, the TGI [5] was 43.6 µM and the TGI [6] was 38.3 µM. The TGI [7] was 19.7 µM, the TGI [8] was 47.5 µM and the TGI [9] was > 62.6 µM. The TGI [10] was > 56 µM.
`COC(=O)NC1=Nc2ccccc2C(=O)NN1` was tested, and the TGI [1] was > 100 µM, the TGI [2] was > 100 µM and the TGI [3] was > 100 µM. For the same compound, the TGI [4] was > 100 µM, the TGI [5] was > 100 µM and the TGI [6] was > 100 µM. For the same compound, the TGI [7] was > 100 µM, the TGI [8] was > 100 µM and the TGI [9] was > 100 µM. For the same compound, the TGI [10] was > 100 µM.
